Values of other authors, collected in patent US20100172993A1, “PARTICLES FOR DELIVERY OF ACTIVE INGREDIENTS, PROCESS OF MAKING AND COMPOSITIONS THEREOF” (priority 2006, published 2010).

Conditions: topical insect repellent

CCN(CC)C(=O)c1ccccc1 [NN Diethyl Benzamide]
Absorption of the active ingredient in the blood plasma after dermal application: no absorption of the active ingredient in the blood plasma
